ChEMBL document CHEMBL1201862, “PubChem BioAssay data set” (2004)
“And” between values parts separate entries of the source, which are not always exact repeats. Equal values may be shown once. The source made the active and inactive calls.

Experiments:
[1] = biological target: T1, Tyrosine-protein phosphatase non-receptor type 7 (Homo sapiens, UniProt P35236); format: functional
T1 sequence (P35236 whole entry): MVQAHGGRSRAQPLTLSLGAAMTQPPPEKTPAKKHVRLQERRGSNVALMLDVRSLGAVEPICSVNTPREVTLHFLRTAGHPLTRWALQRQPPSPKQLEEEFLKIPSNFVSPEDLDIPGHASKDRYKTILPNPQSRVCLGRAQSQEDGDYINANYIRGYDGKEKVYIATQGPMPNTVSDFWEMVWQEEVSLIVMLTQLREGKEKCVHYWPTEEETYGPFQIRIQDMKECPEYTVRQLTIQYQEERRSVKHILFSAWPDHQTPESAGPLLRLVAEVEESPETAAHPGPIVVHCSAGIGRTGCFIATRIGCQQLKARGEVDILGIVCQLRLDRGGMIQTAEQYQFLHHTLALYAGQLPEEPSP

[2] = biological target: T2, Dual specificity protein phosphatase 6 (Rattus norvegicus, UniProt Q64346); format: functional
T2 sequence (Q64346 whole entry): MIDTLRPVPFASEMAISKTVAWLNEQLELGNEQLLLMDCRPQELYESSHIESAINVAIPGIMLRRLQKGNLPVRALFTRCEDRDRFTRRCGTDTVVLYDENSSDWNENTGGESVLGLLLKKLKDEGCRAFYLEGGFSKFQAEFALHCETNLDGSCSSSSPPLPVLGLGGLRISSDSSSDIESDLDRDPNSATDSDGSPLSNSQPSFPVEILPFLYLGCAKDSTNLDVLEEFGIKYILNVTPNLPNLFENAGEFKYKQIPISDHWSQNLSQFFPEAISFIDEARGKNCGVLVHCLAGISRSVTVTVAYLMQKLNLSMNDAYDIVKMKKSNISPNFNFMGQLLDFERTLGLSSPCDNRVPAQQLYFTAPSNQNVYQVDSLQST

[3] = biological target: Glyceraldehyde-3-phosphate dehydrogenase (Homo sapiens, UniProt P04406)
[4] = biological target: T2, Dual specificity protein phosphatase 6
[5] = system: Vero; test: Vero E6 cell cytotoxicity, dose response, cytotoxicity control (AID 540298); format: functional; conditions: Chlorocebus sabaeus
[6] = biological target: Nonstructural protein 1 (Influenza A virus, UniProt Q194T2); format: functional, Influenza A virus (A/California/07/2009(H1N1))
[7] = system: MDCK; test: antiviral activity against H1N1 influenza, dose response, cell-based, strain KY136 (AID 540257); format: functional; conditions: Canis lupus familiaris
[8] = system: MDCK; test: MDCK cell cytotoxicity, dose response, cytotoxicity control (AID 540296); format: functional; conditions: Canis lupus familiaris
[9] = biological target: Voltage-gated inwardly rectifying potassium channel KCNH2 (Homo sapiens, UniProt Q12809); conditions: Potency;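 further: confirmatory quantitative high-throughput screen measuring inhibition of hERG channel activity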
[10] = biological target: T3, Endoribonuclease toxin MazF (Escherichia coli K-12, UniProt P0AE70); test: MazEF toxin-antitoxin RNase activation – biochemical, fluorescence, single-stranded RNA substrate, SAR follow-up (AID 588603); format: functional
T3 sequence (P0AE70 whole entry): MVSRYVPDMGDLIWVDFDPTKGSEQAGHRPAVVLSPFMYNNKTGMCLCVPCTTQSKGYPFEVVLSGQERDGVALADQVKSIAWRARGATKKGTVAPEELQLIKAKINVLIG

[11] = biological target: T3, Endoribonuclease toxin MazF; test: substrate-only fluorescence increase artefacts – biochemical, single-stranded RNase substrate, counter-screen for MazEF activator project, dose response (AID 588502); format: functional
[12] = biological target: T3, Endoribonuclease toxin MazF; test: activation of MazEF endoribonuclease cleavage – biochemical, fluorescence, single-stranded RNA substrate, uHTS hits, dose response (AID 588481); format: functional
[13] = system: MEF; test: SAR analysis of small molecule cytotoxicity of MazEF TA System activators in embryonic fibroblast (MEF) cells. [Related pubchem assays (depositor defined):AID504720, AID504743]; format: functional; conditions: Mus musculus
[14] = biological target: T3, Endoribonuclease toxin MazF; test: SAR analysis of small molecule activators of the MazEF TA System via a fluorescence-based single-stranded RNase assay counterscreen. [Related pubchem assays (depositor defined):AID504720, AID504743]; format: functional
[15] = system: HEK293; test: cells; conditions: Homo sapiens
[16] = Luminescent dose response cell-based high throughput screening assay for inhibitors of the Janus kinase 2 mutant JAK2V617F. [Related pubchem assays: 1446 (Primary screen.), 1521 (Confirmation assay.), 1486 (Counter screen.)]; format: functional
[17] = biological target: T4, High affinity choline transporter 1 (Homo sapiens, UniProt Q9GZV3); test: human choline transporter blockers, potency – cell-based, 5-point CRC, membrane potential dye, dose response (AID 504840); format: functional
T4 sequence (Q9GZV3 whole entry): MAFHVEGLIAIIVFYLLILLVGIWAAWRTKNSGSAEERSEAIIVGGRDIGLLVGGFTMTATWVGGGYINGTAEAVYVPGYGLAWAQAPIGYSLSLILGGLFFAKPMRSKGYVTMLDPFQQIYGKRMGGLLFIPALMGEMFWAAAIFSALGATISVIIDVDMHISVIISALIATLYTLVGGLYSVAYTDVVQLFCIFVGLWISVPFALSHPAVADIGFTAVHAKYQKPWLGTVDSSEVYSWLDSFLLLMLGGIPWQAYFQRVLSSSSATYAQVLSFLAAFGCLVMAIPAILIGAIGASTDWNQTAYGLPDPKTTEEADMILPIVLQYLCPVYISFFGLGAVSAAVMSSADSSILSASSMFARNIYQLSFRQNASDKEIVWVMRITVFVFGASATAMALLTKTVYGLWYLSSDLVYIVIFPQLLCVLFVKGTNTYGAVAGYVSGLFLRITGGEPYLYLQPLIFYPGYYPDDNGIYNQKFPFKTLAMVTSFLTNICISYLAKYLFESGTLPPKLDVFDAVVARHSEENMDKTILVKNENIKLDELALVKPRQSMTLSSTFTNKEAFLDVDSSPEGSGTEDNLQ

[18] = system: HEK293; test: cells; conditions: Homo sapiens; remark: listed apart in the source
[19] = biological target: Mu-type opioid receptor (Homo sapiens, UniProt P35372); test: (§1) Counterscreen for agonists of heterodimerization of the mu 1 (OPRM1) and delta 1 (OPRD1) opioid receptors: Luminescence-based cell-based high throughput dose response assay to identify agonists of OPRM1 homodimerization.; format: functional
[20] = biological target: 5-hydroxytryptamine receptor 5A (Homo sapiens, UniProt P47898); test: Counterscreen for agonists of OPRM1-OPRD1 heterodimerization: luminescence-based cell-based high throughput dose response assay to identify agonists of 5-hydroxytryptamine (serotonin) 5A receptor (HTR5A). [Related pubchem assays (depositor defined):AID504326, AID504355, AID504692, AID504904, AID504905]; format: functional
[21] = biological target: Delta-type opioid receptor (Homo sapiens, UniProt P41143); test: as §1, with “of OPRD1” for “of OPRM1”, “homodimerization. [Related pubchem assays (depositor defined):AID504326, AID504355, AID504692, AID504904, AID504905]” for “homodimerization.”; format: functional
[22] = system: NIH3T3; test: mammalian cell viability counter-check – Alamar Blue, fluconazole, dry powder, cytotoxicity control for antifungal drug resistance project, dose response (AID 488809); format: functional, cell-based; conditions: Mus musculus
[23] = biological target: T5, Tyrosyl-DNA phosphodiesterase 2 (Homo sapiens, UniProt O95551); test: potency against TDP2 phosphodiesterase activity – biochemical, epi absorbance, IC50, dose response (AID 743297)
T5 sequence (O95551 whole entry): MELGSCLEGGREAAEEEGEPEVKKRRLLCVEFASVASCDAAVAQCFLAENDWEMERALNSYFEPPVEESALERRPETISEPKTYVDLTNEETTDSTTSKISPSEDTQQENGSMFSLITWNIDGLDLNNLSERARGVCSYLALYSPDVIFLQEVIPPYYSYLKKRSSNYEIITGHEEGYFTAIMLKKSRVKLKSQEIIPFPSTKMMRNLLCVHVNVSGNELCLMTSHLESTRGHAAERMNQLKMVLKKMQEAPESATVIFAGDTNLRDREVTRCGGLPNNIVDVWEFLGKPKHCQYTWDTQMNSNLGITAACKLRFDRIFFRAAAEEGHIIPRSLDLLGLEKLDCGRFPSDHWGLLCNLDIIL

[24] = biological target: Beta-adrenergic receptor kinase 1 (Homo sapiens, UniProt P25098); test: aptamer displacement from bead-bound GRK2 – biochemical, cherry pick 1, bead flow cytometry, dose response (AID 504500)
[25] = biological target: Hexokinase HKDC1 (Homo sapiens, UniProt Q2TB90); test: inhibition of HKDC1 glucose phosphorylation – biochemical, W721R variant, dose response (AID 504729); format: functional
[26] = biological target: T6, Carboxy-terminal domain RNA polymerase II polypeptide A small phosphatase 1 (Homo sapiens, UniProt Q9GZU7); test: CTDSP1 inhibitors, concentration-response, biochemical, absorbance readout, ultra-high-throughput screen actives (AID 540297); format: functional
T6 sequence (Q9GZU7 whole entry): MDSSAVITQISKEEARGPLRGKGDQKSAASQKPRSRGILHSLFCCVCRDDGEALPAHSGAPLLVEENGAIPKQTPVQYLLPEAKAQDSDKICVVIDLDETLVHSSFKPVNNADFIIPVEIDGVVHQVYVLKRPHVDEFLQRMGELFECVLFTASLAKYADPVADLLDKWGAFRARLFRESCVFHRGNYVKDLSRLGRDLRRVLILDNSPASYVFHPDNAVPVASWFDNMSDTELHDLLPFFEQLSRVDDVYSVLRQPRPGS

[27] = biological target: Cytochrome P450 2D6 (Homo sapiens, UniProt P10635);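 further: CYP2D6 member of a cytochrome P450 panel assay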
[28] = biological target: T7, Cytochrome P450 1A2 (Homo sapiens, UniProt P05177);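 further: PubChem cytochrome P450 panel assay, CYP1A2 panel member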
T7 sequence (P05177 whole entry): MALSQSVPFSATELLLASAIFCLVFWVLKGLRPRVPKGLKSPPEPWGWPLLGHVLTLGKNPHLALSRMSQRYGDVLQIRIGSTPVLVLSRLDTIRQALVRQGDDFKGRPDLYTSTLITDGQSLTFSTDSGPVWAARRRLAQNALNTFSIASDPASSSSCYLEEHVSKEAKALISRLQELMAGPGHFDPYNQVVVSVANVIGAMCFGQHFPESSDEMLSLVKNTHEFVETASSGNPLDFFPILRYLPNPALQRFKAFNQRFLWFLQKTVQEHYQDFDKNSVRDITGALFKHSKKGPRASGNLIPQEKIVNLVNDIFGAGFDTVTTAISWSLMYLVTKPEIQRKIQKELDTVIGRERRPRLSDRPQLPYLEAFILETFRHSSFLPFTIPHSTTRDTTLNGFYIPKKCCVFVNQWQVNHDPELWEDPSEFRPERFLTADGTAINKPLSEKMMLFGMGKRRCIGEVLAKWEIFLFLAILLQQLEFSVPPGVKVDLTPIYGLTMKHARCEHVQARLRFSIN

Sequence of Nonstructural protein 1 (Q194T2 whole entry): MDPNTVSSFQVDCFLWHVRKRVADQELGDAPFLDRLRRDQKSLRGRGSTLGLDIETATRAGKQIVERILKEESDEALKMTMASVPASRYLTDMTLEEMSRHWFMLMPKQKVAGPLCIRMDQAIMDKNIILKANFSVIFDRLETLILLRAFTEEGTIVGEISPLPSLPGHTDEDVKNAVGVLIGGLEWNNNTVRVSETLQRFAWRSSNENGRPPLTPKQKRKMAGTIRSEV
Sequence of Hexokinase HKDC1 (Q2TB90 whole entry, the tested form may be a part): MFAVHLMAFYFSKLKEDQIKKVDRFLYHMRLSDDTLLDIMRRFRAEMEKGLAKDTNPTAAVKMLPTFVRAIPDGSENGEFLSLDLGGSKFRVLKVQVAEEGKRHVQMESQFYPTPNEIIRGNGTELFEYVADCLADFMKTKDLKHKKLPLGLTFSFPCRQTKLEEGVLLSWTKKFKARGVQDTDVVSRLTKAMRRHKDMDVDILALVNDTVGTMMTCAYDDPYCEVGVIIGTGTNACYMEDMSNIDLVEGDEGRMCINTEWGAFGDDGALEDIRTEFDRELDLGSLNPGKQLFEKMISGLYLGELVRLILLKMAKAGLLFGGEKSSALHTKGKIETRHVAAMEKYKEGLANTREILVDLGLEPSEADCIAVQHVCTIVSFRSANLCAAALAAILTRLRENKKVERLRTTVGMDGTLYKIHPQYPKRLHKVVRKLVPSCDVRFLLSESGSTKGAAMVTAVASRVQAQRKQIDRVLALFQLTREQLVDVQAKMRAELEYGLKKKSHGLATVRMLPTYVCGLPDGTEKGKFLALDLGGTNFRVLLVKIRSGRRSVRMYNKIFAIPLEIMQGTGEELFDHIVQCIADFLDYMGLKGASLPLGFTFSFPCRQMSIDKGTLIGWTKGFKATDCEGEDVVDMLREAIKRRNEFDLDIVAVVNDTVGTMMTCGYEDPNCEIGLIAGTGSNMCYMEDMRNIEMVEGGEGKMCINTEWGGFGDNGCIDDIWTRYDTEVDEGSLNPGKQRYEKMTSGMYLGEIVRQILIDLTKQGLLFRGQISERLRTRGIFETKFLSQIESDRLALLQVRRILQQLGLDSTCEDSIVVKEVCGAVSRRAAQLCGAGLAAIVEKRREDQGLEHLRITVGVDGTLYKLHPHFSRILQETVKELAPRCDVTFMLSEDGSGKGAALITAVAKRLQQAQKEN
Sequence of Cytochrome P450 2D6 (P10635 whole entry): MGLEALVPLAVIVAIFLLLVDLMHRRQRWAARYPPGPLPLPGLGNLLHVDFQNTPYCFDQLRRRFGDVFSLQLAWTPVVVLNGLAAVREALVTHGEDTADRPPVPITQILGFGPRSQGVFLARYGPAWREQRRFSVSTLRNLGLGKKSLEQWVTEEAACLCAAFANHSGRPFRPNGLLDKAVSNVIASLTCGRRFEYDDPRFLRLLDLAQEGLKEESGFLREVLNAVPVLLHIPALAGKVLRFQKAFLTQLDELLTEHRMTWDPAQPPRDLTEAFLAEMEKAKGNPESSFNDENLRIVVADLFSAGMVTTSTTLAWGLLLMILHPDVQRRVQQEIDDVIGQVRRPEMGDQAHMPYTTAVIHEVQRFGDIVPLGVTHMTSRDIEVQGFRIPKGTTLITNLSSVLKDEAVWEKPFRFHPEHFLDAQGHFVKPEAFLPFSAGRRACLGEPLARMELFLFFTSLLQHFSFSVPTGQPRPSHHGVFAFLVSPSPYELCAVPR
Sequence of Mu-type opioid receptor (P35372 whole entry): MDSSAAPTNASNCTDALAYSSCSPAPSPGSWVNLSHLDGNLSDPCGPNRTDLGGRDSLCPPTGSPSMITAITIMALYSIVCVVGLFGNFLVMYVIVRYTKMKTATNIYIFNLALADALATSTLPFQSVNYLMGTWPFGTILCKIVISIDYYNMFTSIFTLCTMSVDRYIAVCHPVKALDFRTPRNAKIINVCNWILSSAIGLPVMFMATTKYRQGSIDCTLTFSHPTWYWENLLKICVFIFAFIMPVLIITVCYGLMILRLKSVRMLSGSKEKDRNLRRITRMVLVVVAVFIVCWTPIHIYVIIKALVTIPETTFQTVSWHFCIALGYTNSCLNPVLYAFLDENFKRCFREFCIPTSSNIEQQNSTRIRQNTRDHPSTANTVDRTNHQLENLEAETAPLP
Sequence of Delta-type opioid receptor (P41143 whole entry): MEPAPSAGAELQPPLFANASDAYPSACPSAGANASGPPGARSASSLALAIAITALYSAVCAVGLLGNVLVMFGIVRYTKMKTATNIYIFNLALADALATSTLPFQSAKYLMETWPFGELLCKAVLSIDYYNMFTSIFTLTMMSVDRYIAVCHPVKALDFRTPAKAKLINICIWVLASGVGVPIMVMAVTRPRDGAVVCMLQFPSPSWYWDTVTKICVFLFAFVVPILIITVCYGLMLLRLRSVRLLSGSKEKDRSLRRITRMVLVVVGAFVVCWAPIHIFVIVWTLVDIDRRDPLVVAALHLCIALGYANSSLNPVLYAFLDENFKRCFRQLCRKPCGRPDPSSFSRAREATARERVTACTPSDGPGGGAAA
Sequence of Beta-adrenergic receptor kinase 1 (P25098 whole entry): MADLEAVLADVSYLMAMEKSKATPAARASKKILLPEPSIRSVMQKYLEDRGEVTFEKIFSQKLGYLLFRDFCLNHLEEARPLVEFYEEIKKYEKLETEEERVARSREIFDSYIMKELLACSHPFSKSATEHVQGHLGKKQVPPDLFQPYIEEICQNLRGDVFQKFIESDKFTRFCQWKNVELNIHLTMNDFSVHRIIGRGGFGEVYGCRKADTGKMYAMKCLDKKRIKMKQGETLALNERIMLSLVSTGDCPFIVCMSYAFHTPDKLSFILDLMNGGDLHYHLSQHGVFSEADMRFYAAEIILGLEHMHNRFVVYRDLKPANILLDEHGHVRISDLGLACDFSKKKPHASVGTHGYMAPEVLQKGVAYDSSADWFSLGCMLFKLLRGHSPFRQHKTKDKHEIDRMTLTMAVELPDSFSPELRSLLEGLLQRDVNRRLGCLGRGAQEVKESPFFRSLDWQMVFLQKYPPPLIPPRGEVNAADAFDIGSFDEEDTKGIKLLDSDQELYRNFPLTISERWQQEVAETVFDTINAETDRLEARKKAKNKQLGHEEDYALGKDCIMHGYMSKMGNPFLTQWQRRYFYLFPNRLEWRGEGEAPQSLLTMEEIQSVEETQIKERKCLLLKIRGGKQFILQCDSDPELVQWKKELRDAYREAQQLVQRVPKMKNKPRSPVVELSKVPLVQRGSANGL
Sequence of 5-hydroxytryptamine receptor 5A (P47898 whole entry): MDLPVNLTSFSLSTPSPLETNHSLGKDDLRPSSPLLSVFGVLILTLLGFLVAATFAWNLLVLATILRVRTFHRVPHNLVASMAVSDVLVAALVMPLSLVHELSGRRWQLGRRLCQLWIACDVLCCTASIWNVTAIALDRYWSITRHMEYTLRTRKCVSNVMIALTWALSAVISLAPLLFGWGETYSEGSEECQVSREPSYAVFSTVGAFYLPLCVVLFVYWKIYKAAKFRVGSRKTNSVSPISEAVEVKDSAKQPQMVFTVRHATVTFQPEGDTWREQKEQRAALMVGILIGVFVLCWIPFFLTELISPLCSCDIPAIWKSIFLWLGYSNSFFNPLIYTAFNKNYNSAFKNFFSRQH
Sequence of Voltage-gated inwardly rectifying potassium channel KCNH2 (Q12809 whole entry): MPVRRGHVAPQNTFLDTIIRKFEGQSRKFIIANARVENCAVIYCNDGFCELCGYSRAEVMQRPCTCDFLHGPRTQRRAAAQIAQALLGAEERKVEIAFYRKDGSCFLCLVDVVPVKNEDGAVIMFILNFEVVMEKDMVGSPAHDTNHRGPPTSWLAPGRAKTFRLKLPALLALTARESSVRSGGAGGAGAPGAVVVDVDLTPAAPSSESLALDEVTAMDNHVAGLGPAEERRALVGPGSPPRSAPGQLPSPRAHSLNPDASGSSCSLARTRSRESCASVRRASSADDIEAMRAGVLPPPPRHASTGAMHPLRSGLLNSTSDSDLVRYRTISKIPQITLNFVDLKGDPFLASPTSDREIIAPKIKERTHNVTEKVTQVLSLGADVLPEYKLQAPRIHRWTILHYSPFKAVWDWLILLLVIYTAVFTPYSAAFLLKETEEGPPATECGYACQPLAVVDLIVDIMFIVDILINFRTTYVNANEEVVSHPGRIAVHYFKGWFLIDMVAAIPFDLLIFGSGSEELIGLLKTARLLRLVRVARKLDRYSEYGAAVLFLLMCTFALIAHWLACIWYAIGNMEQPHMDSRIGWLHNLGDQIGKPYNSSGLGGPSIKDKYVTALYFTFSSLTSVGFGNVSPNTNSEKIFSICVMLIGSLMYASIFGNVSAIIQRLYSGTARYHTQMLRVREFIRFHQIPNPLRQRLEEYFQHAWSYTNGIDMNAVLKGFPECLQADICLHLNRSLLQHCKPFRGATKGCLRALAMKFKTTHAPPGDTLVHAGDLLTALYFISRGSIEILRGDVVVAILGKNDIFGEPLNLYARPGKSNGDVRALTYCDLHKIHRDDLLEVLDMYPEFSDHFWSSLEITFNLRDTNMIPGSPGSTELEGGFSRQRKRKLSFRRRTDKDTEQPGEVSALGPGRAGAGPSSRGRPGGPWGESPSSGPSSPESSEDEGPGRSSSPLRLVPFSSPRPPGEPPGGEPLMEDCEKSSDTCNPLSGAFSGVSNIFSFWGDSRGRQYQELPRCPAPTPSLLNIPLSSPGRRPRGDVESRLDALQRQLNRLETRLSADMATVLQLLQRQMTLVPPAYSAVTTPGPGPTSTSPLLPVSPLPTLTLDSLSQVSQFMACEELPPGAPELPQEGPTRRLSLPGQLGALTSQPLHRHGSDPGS
Sequence of Glyceraldehyde-3-phosphate dehydrogenase (P04406 whole entry): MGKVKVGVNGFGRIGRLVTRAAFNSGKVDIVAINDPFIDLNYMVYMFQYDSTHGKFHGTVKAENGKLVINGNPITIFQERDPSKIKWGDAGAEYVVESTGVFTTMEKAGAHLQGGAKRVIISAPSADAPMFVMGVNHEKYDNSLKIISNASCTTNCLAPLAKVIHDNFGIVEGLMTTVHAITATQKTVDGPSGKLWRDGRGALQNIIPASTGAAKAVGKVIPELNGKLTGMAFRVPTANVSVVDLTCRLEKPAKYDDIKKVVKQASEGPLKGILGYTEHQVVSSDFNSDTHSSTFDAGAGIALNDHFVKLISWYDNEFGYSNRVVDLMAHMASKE

Compound: C#CCCCCCCCCCCCCCCCCCC
- IC50 [1]: > 100 µM (not active)
- IC50 [2]: > 100 µM (inactive)
- IC50 [3]: > 100 µM (not active)
- IC50 [4]: > 100 µM (inactive)

Compound: Fc1ccc(-[n+]2nc(Nc3ccccc3)sc2-c2c(Cl)cccc2Cl)cc1
- CC50 [5]: 23.2 µM (active)
- IC50 [6]: 51.2 µM (active)
- IC50 [7]: > 100 µM (active)
- CC50 [8]: 11.6 µM (active)

Compound: Brc1ccc(-c2ccccc2)cc1
- AC50 [9]: 39.8 µM (inconclusive)

Compound: O=C(C1=NN[C@@H]2C(=O)N(c3cccc(F)c3)C(=O)[C@H]12)c1ccc2ccccc2n1
- EC50 [10]: 24.4 µM (inactive)
- EC50 [11]: > 99 µM (inactive)
- EC50 [12]: 20.5 µM (inactive)
- CC50 [13]: > 99 µM (inactive)
- EC50 [14]: > 99 µM (inactive)

Compound: COc1ccc(C2=Nn3c(nnc3C3CCCCC3)SC2)cc1OC
- EC50 [15]: > 59.6 µM (inactive)
- IC50 [16]: 3.41 µM (active)
- IC50 [17]: 1.74 µM (active)
- EC50 [18]: > 59.6 µM (inactive)

Compound: Cc1ccc(C)c(-n2cc(CNC(C)Cn3cncn3)c(-c3ccccc3)n2)c1 (centres undefined)
- EC50 [19]: > 92.5 µM (inactive)
- EC50 [20]: > 92.5 µM (inactive)
- EC50 [21]: > 92.5 µM (inactive)

Compound: CCOC(=O)c1nn(Cc2ccc(Cl)cc2)c2ccccc12
- AC50 [22]: 39 µM (active)

Compound: O=C(O)c1ccccc1-c1c2cc(I)c(=O)c(I)c-2oc2c(I)c(O)c(I)cc12
- IC50 [6]: 19.4 µM (active)
- IC50 [23]: > 14.3 µM (inactive) and 35.7 µM (inactive)
- EC50 [24]: 14.7 µM (inactive)
- IC50 [25]: 14.4 µM (active)
- IC50 [26]: 1.89 µM (active)

Compound: CS(=O)(=O)O.Cc1ccc(N(CC2=NCCN2)c2cccc(O)c2)cc1 [PHENTOLAMINE MESYLATE]
- AC50 [27]: 3.16 µM (active)
- AC50 [28]: inactive
